Here are results for six molecules from ChEMBL document CHEMBL2074255, “Human intestinal H+/peptide cotransporter. Cloning, functional expression, and chromosomal localization” (J Biol Chem, 1995).

Residues, ends and D or L forms follow the SMILES beside them.

Assay type in all cases: functional, cell-based
Data set [1] concerns the target T1, Solute carrier family 15 member 1 (Homo sapiens) (UniProt P46059).
T1 sequence (whole entry): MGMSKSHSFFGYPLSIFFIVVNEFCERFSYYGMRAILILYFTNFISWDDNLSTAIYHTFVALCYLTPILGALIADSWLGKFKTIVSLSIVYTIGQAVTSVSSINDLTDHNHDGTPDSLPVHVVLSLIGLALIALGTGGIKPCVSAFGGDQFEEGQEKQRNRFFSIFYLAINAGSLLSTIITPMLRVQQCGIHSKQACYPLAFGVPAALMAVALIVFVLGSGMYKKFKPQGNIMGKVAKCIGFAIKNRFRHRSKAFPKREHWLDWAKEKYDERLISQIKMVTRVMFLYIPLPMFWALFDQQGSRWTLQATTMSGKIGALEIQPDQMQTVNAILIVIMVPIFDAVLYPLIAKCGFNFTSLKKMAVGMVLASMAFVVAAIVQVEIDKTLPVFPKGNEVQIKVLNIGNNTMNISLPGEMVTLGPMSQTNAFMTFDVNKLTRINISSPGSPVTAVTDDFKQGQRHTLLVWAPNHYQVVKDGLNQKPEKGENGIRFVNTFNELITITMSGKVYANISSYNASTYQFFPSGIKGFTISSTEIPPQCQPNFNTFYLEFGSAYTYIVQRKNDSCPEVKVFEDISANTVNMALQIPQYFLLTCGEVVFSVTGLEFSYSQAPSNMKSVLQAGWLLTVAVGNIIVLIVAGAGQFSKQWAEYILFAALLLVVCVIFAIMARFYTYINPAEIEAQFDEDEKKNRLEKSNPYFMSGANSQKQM
As to the kind of experiment: TP_TRANSPORTER: inhibition of Gly-Sar uptake (Gly-Sar: 20 uM, Ala-Pro: 10000 uM) in PEPT1-expressing HeLa cells. The arrangement: scale not given: the % may be the effect or the level left.

Data set [2] addresses T1, Solute carrier family 15 member 1 (Homo sapiens). As to the kind of experiment: TP_TRANSPORTER: inhibition of Gly-Sar uptake (Gly-Sar: 20 uM, Gly-Gly-Ile: 10000 uM) in PEPT1-expressing HeLa cells. On the set-up: scale not given: the % may be the effect or the level left.
Data set [3] has the same target. The data set is described as follows: TP_TRANSPORTER: inhibition of Gly-Sar uptake (Gly-Sar: 20 uM, Gly-Gly-Pro: 10000 uM) in PEPT1-expressing HeLa cells. On the set-up: scale not given: the % may be the effect or the level left.
Data set [4] has the same target. The data set is described as follows: TP_TRANSPORTER: inhibition of Gly-Sar uptake (Gly-Sar: 20 uM, Gly-Pro: 10000 uM) in PEPT1-expressing HeLa cells. The arrangement: scale not given: the % may be the effect or the level left.
For data set [5] the target is unchanged. As to the kind of experiment: TP_TRANSPORTER: inhibition of Gly-Sar uptake (Gly-Sar: 20 uM, Leu-Pro: 10000 uM) in PEPT1-expressing HeLa cells. On the set-up: scale not given: the % may be the effect or the level left.
Substrate in data set [6]: CN(CC(=O)O)C(=O)CN
The data set is described as follows: TP_TRANSPORTER: uptake in PEPT1-expressing HeLa cells.

On to `C[C@H](N)C(=O)N1CCC[C@H]1C(=O)O` (H-Ala-Pro-OH), for which, in data set [1], the Activity was 8%.

As for `CC[C@H](C)[C@H](NC(=O)CNC(=O)CN)C(=O)O` (H-Gly-Gly-Ile-OH), in data set [2], the Activity was 10%.

In the case of `NCC(=O)NCC(=O)N1CCC[C@H]1C(=O)O` (H-Gly-Gly-Pro-OH), the Activity in data set [3] is 13%.

For the molecule `NCC(=O)N1CCC[C@H]1C(=O)O` (H-Gly-Pro-OH), the Activity in data set [4] was 7%.

For the molecule `CC(C)C[C@H](N)C(=O)N1CCC[C@H]1C(=O)O` (H-Leu-Pro-OH), the Activity in data set [5] is 8%.

B1: Solute carrier family 15 member 1 (Homo sapiens), P46059 (protein)
chain: T1 sequence (whole entry)
Take B1: the Km in data set [6] amounted to 290 µM.
